Results: patent US6844333B1, “Method of treating atherosclerosis” (The Trustees of the University of Pennsylvania, priority 1999, dated 2005)

Legend:
[1] = test system: human monocytes; assay: Inhibition of human monocyte/macrophage Fcγ receptor mediated phagocytosis; type: cell-based; details: 90 min at 37° C.; for % Phagocytic Cells (percent of monocytes/macrophages phagocytosing IgG sensitized cells): buffer control 42%; for PI (phagocytic index, ingested IgG-sensitized cells per 100 monocytes): buffer control 105
Procedure: The agents to be tested (haloperidol, SCH-23390 and sulpiride) were incubated with human monocytes isolated using lymphocyte separation medium. Incubation was for 90 min at 37° C. Buffer (PBS) treated cells served as a control. At the end of the incubation period, monocytes were exposed to IgG-sensitized cells in accordance with the phagocytic assay of Indik et al, Blood 86:4389 (1995).

[2] = Quantitative serum lipid analysis (cholesterol, triglyceride) in cholesterol-fed rabbits; type: in vivo, Male New Zealand White rabbits; details: change relative to control group; estriol 1 mg/kg; haloperidol 1/10/5 mg/kg s.c. daily
Excerpt: (§1) Serum lipid levels and I/M were expressed as the mean+SEM for all animals. The changes in lipid levels before and after the treatment period were compared using paired t-tests. The differences between the treatment groups and controls were compared using analysis of variance (ANOVA) techniques. Repeated Measures ANOVA was used to compare the difference in plaque loads among the five groups. Multiple regression models were used to compare the differences in plaque loads between the four treatment groups and the control group, adjusting for the difference in cholesterol and triglyceride levels. P<0.05 was considered statistically significant.

[3] = test system: aortic atherosclerotic plaque in hypercholesterolemic rabbits; assay: Histomorphometric analysis of aortic plaque load (I/M); type: in vivo, Male New Zealand White rabbits; details: for aortic plaque load vs controls after controlling for changes in serum C and T levels (multiple regression): estriol 1 mg/kg (P=0.052), haloperidol 1/10/5 mg/kg (P=0.069); for (I/M)/(I/M)CG: relative to control group, estriol 1 mg/kg, haloperidol 1/10/5 mg/kg s.c. daily
Procedure: Five-micron, serial histologic sections (15 each) of 27 ascending aortas were cut from paraffin blocks, stained with hematoxylin and eosin (H&E) and were studied by light microscopy. Images of tissue sections were captured to a Power Macintosh 7300/200 computer by a Hitachi 3-CCD Color Camera (model HV-C20) attached to a Nikon Eclipse E600 microscope. With digital imaging (IPLap Spectrum, Signal Analytics Corporation, Vienna, Va.), they were then analyzed by manual color segmentation by tracting the endothelial surface (intima), internal elastic lamina, and external elastic lamina of each vessel. From segmented images, intimal and medial areas were computed, allowing calculation of intima to media ratios. Plaque load for each aorta was defined as the ratio of intimal area to medial area (I/M).
as §1

[4] = rabbit, in vivo
Procedure: (§2) Male New Zealand White rabbits (3.2-4.9 pounds each) were fed a 0.5% cholesterol chow diet for 12 weeks and randomly assigned to five groups (n=6 each); one control group (CG) and four groups treated with estriol (E), haloperidol (H), low-dose 17-hydroxyprogesterone (LDP), or high-dose 17-hydroxyprogesterone (HDP). Serum cholesterol (C) and triglyceride (T) were measured before and after the treatment period in all groups; serum progesterone was determined only in the LDP and HDP groups. After the treatment period, rabbits were euthanized for histomorphometric analysis of aortic plaque load. The rabbits were treated according to the Animal Welfare Act specifications.
(§3) Vehicle only (CG) and vehicle plus steroid (treated groups) were administered daily subcutaneously. Steroid doses were as follows: estriol, 1 mg/kg; haloperidol, 1 mg/kg for 2 weeks, 10 mg/kg for 2 weeks, and 5 mg/kg for 8 weeks; low-dose 17-hydroxyprogesterone, 10 mg/kg; high-dose 17-hydroxyprogesterone, 90 mg/kg.
(§4) After 91-100 days of treatment, twenty-seven rabbits were euthanized for histomorphometric analysis of aortic plaque load.

[5] = Tolerability / survival during 12-week treatment; details: E: after 18 days; H: at 39 and 71 days, failure to thrive; n=6 per group
Procedure: as §2, §3, §4

[6] = test system: aortic atherosclerosis in hypercholesterolemic rabbits; assay: Gross examination of the aortas (occlusion); type: in vivo, Male New Zealand White rabbits; details: treated animals vs control
Excerpt: With the control animals, there was about 42% occlusion. With the low dose progesterone there was 6% occlusion and with the high dose progesterone there was 0% occlusion evident.

Row | Structure (SMILES) | % Phagocytic Cells (percent of monocytes/macrophages phagocytosing IgG sensitized cells) ([1]; 500 μg/ml PBS/methanol) | PI (phagocytic index, ingested IgG-sensitized cells per 100 monocytes) ([1]; 500 μg/ml PBS/methanol) | Cholesterol Δ/ΔCG [2] | Triglyceride Δ/ΔCG [2] | aortic plaque load vs controls after controlling for changes in serum C and T levels (multiple regression) [3] | (I/M)/(I/M)CG [3] | % Phagocytic Cells (percent of monocytes/macrophages phagocytosing IgG sensitized cells) ([1]; 50 μM PBS/methanol) | PI (phagocytic index, ingested IgG-sensitized cells per 100 monocytes) ([1]; 50 μM PBS/methanol) | tolerance of dose by rabbits [4] | rabbits that died or were sacrificed during treatment [5] | atherosclerosis on gross examination of the aortas (in words) [6]
1 | CCN1CCCC1CNC(=O)c1cc(S(N)(=O)=O)ccc1OC (stereo not drawn) [Sulpiride, sulpiride] | 59% | 232 | – | – | – | – | – | – | – | – | –
2 | O=C(CCCN1CCC(O)(c2ccc(Cl)cc2)CC1)c1ccc(F)cc1 [Haloperidol, haloperidol] | – | – | 0.86 | 0.81 | lower | 0.29 | 0% | 0 | poor tolerance | two rabbits in he H group were sacrificed | –
3 | C[C@]12CC[C@@H]3c4ccc(O)cc4CC[C@H]3[C@@H]1C[C@@H](O)[C@@H]2O [E, estriol] | – | – | 0.71 | −0.03 | lower | 0.02 | – | – | – | One rabbit in the E group died | decreased atherosclerosis
4 | CN1CCc2cc(Cl)c(O)cc2[C@@H](c2ccccc2)C1 [SCH-23390] | – | – | – | – | – | – | 16% | 38 | – | – | –
